Publication PMC11167021, “Discovery of a new class of cell-penetrating peptides by novel phage display platform” (Scientific Reports, 2024)

How the values were obtained:
HEK cells = assay: Internalization of peptides on phage by confocal microscopy; type: cell-based; conditions: peptide displayed on phage, compared with ORD 5 phage pools
Excerpt: Confocal microscopy was used to investigate the internalization and cytoplasmic localization of the selected peptides on phage. First, we used the phage pool. […] Some of these peptides had been identified from the selection against all three cell lines and some were cell-type selective. […] Representative images showing different internalization levels of NNJA peptides on phage were shown in Supplementary Fig. S6. Confirmation of internalization for select peptides was obtained using the same approach in Caco2 cells (Supplementary Figs. S7, S8).
Cells were fixed with 4% paraformaldehyde (PFA) on ice for 20 min after the washing steps. Fixed cells were washed with PBS for three times to remove any excess PFA, and followed by 1 h blocking in 3% bovine serum albumin (BSA) in Tris buffer saline (TBS) with 0.2% triton X-100, and antibodies staining in TBS with 0.2% triton X-100. Primary antibodies were incubated with cell samples overnight at 4 °C. Following PBS washes, species-specific Alexa Fluor 488, Alexa Fluor 568, and/or Alexa Fluor 647-coupled secondary antibodies were used for signal detection. Imaging data collection was conducted on an LSM800 (Zeiss) confocal microscope, using a 40× (NA 1.1 W LD C-Apochromat, Zeiss) objective. Controls treated with secondary antibody were shown negative or undetectable signal.

Caco2 cells = conditions: peptide displayed on phage PIII, streptavidin-HRP on pIX; n = 2
Method: (§1) We further evaluated the ability of NNJA peptides on phage to deliver functional groups into HEK-239 and CaCo2 cells by displaying an Avi-tag peptide on the minor coat protein pIX. Post biotinylation of Avi-tag by BirA, streptavidin-HRP was added to phage, forming a phage-protein complex (Avi[bio]/CPP-SA-HRP).
(§2) A randomly picked peptide ([…]) from the naïve library was incorporated in the setting and served as one of the negative controls. The method was described previously. Cell viability was evaluated in a replicated experimental group under the same assay condition using CellTiter-Glo luminescent cell viability assay from Promega.

HEK-239 cells = assay: Double-displayed phage carrying streptavidin-HRP, cellular uptake detected with TMB; type: cell-based; conditions: peptide displayed on phage PIII, streptavidin-HRP on pIX; n = 2
Method: as §1, §2

## GRKKRRQRRRPQ [Tat48–60, classic CPP]
HEK cells
  phage internalization in HEK cells, M13 antibody signal: lower signal intensity

## TVSRELTPL (phage displayed) [random peptide]
Caco2 cells
  cellular uptake of phage-protein complex (Avi[bio]/CPP-SA-HRP), TMB signal, CaCo2 cells: minimum signal
HEK-239 cells
  cellular uptake of phage-protein complex (Avi[bio]/CPP-SA-HRP), TMB signal, HEK-239 cells: minimum signal
